Experiment [1] relates to Mus musculus. Briefly: Analgesic activity in Mus musculus albino (mouse) assessed as latency time at 25 mg/kg, ip after 30 min by tail-flick test. Type of experiment: functional. The conditions noted are these: route intraperitoneal.
In experiment [2] the test system is Mus musculus. Briefly: Analgesic activity in Mus musculus albino (mouse) assessed as latency time at 25 mg/kg, ip after 30 min by hot-plate test. It counts as functional. The conditions noted are these: route intraperitoneal. A general note: Thermal pain tests record how soon the animal reacts.
Experiment [3] deals with Mus musculus. Briefly: Analgesic activity in Mus musculus albino (mouse) assessed as latency time at 25 mg/kg, ip after 30 min in presence of 2 mg/kg, ip of mecamylamine by tail-flick test. It counts as functional.
Experiment [4] relates to Mus musculus. Briefly: Analgesic activity in Mus musculus albino (mouse) assessed as inhibition of formalin-induced paw licking behavior in both phases of formalin response at 25 mg/kg, ip administered 30 min before formalin challenge. It counts as functional, organism-based. Also on record: dose 25 mg/kg.
Experiment [5] concerns Mus musculus. Briefly: Analgesic activity in Mus musculus albino (mouse) assessed as latency time at 17.5 mg/kg, ip after 30 min by hot-plate test. The following applies: route intraperitoneal. It counts as functional.
Experiment [6] deals with Mus musculus. Briefly: Analgesic activity in Mus musculus albino (mouse) assessed as latency time at 17.5 mg/kg, ip after 30 min by tail-flick test. Type of experiment: functional. The following applies: route intraperitoneal.

The values that follow come from ChEMBL document CHEMBL3046852, “Synthesis and analgesic activity of new pyridine-based heterocyclic derivatives” (2012).

The source made the active and inactive calls. No cut-off for these calls is given here.

For the molecule `CC(=O)N1N=C(c2cccnc2)OC1c1ccccc1Cl` (stereo not drawn), the Time with Mus musculus [1] is reported as 5.16 s; in the experiment with Mus musculus [2], 7.77 s.

Regarding `Clc1ccccc1-c1nnc(-c2cccnc2)[nH]1`, the Time stood at 5.53 s in the experiment on Mus musculus [1] and 8.55 s in the experiment on Mus musculus [2].

For `Cc1n[nH]c(-c2ccncc2)n1`, the results for the Time with Mus musculus [3], in the experiment on Mus musculus [1] and in the experiment with Mus musculus [2] were 5.22 s, 7.62 s and 9.49 s, respectively. Also, the result in the experiment with Mus musculus [4] was Active.

For `Cc1cc(=O)[nH]n1C(=O)c1ccncc1`, the Time in the experiment with Mus musculus [1] is recorded as 5.7 s; with Mus musculus [2], 7.51 s.

Regarding `c1ccc(-c2nnc(-c3ccncc3)[nH]2)cc1`, the Time in the experiment on Mus musculus [1] came out at 5.33 s; in the experiment on Mus musculus [2] it was 7.81 s.

As for `CC(=O)N1N=C(c2ccncc2)OC1C` (stereo not drawn), the Time worked out at 5.14 s in the experiment with Mus musculus [3], 11.03 s with Mus musculus [1] and 12.93 s with Mus musculus [2]. In addition, the outcome with Mus musculus [4] was Active.

Regarding `CC(=O)N1N=C(c2cccnc2)OC1c1ccccc1` (stereo not drawn), the Time is given as 5.13 s in the experiment with Mus musculus [3], 8.44 s in the experiment on Mus musculus [1] and 10.03 s in the experiment with Mus musculus [2]. Besides, in the experiment on Mus musculus [4], the outcome was Active.

As to `CC(=O)N1N=C(c2ccncc2)OC1c1ccccc1[N+](=O)[O-]` (stereo not drawn), the values for the Time in the experiment with Mus musculus [1] and in the experiment with Mus musculus [2] were 4.76 s and 7.48 s, respectively.

On to `CC(C)=CCN1CC[C@@]2(C)c3cc(O)ccc3C[C@@H]1[C@@H]2C` (relative stereo), for which the Time came to 19.89 s in the experiment with Mus musculus [5] and 12.84 s in the experiment on Mus musculus [6].

On to `Cc1cc(C)n(C(=O)c2ccncc2)n1`, for which the values for the Time with Mus musculus [1] and in the experiment with Mus musculus [2] were 6.4 s and 8.11 s, respectively.

In the case of `Cc1cc(=O)[nH]n1C(=O)c1cccnc1`, the Time is on record as 5.26 s in the experiment on Mus musculus [1] and 7.54 s with Mus musculus [2].

For the molecule `Cc1cc(C)n(C(=O)c2cccnc2)n1`, the Time with Mus musculus [3] amounted to 5.18 s; with Mus musculus [1] it was 7.69 s; in the experiment on Mus musculus [2] it was 8.3 s. The result with Mus musculus [4] was Active.

As to `O=[N+]([O-])c1ccccc1-c1nnc(-c2ccncc2)[nH]1`, the values for the Time in the experiment on Mus musculus [3], in the experiment on Mus musculus [1] and with Mus musculus [2] were 5.23 s, 11.8 s and 15.1 s, respectively. Also, the result in the experiment with Mus musculus [4] was Active.

For the molecule `Cc1nnc(-c2cccnc2)[nH]1`, the Time in the experiment with Mus musculus [3] came to 5.17 s; in the experiment on Mus musculus [1], 7.99 s; with Mus musculus [2] it was 9.65 s. For the same molecule, the result in the experiment on Mus musculus [4] was Active.

Regarding `Clc1ccccc1-c1nnc(-c2ccncc2)[nH]1`, the Time in the experiment on Mus musculus [3] worked out at 5.12 s; in the experiment on Mus musculus [1], 11.2 s; in the experiment on Mus musculus [2], 13.12 s. In addition, the result with Mus musculus [4] was Active.

`c1ccc(-c2n[nH]c(-c3cccnc3)n2)cc1`: the Time is listed as 4.73 s in the experiment with Mus musculus [1] and 7.5 s in the experiment with Mus musculus [2].

Take `CC(=O)N1N=C(c2cccnc2)OC1c1ccccc1[N+](=O)[O-]` (stereo not drawn): the Time is reported as 4.93 s in the experiment with Mus musculus [1] and 7.29 s with Mus musculus [2].

Consider `O=[N+]([O-])c1ccccc1-c1nnc(-c2cccnc2)[nH]1`, for which the Time in the experiment with Mus musculus [1] amounted to 6.15 s; in the experiment with Mus musculus [2], 8.47 s.

Consider `CC(=O)N1N=C(c2ccncc2)OC1c1ccccc1` (stereo not drawn), for which the results for the Time in the experiment on Mus musculus [1] and with Mus musculus [2] were 6.03 s and 7.78 s, respectively.

For the molecule `CC(=O)N1N=C(c2ccncc2)OC1c1ccccc1Cl` (stereo not drawn), the Time with Mus musculus [1] stood at 6.03 s; in the experiment with Mus musculus [2], 7.81 s.

For the molecule `CC(=O)N1N=C(c2cccnc2)OC1C` (stereo not drawn), the Time stood at 5.14 s in the experiment on Mus musculus [3], 8.95 s with Mus musculus [1] and 10.03 s with Mus musculus [2]. In addition, the result in the experiment with Mus musculus [4] was Active.
